Assay [1] relates to E. coli RNase P RNA, M1 RNA. Put plainly: Inhibition of bacterial RNase P activity, IC50 determination (cleavage of pATSerUG by M1 RNA). Type of assay: biochemical. The settings on record: NI: No inhibition.
Assay [2] concerns Staphylococcus aureus (ATCC25923). Put plainly: MIC, broth microdilution (CLSI), Staphylococcus aureus ATCC25923. The settings on record: Staphylococcus aureus, ATCC25923, read-out: S. aureus ATCC 25923 MIC. (In broth dilution the organism is exposed to a series of concentrations in liquid medium.)
The subject of assay [3] is Escherichia coli (ATCC25922). Put plainly: MIC, broth microdilution (CLSI), Escherichia coli. The settings on record: Escherichia coli, ATCC25922, read-out: E. coli ATCC 25922 MIC, Table XIII.
Experimental: Initial minimal inhibitory concentration (MIC) tests were made on two bacterial strains: • Escherichia coli (ATCC25922) • Staphylococcus aureus (ATCC25923).
MIC values were determined using the standard broth microdilution procedure based on the guidelines by the Clinical and Laboratory Standards Institute (CLSI). Briefly, the compounds were dissolved in DMSO to 10 mM. They were diluted in cation-adjusted Mueller-Hinton broth (CAMHB) to four times the highest concentration tested. A serial two-fold dilution in CAMHB was done in microdilution plates. The inoculum of bacterial strain to be tested was prepared by making a suspension of colonies from an 18 to 24 hours old plate in CAMHB. The inoculum was diluted so that, after inoculation, each well contained approximately 5×10^5 CFU/mL. To a volume of 50 μl compound in CA 3 an equal volume of inoculum was added. The tray was sealed in a plastic bag and incubated at 35° C. for 16 to 20 hours. To aid in the detection of growth the dye resazurin was added to a final concentration 0.001% and incubated at room temperature for 1 h. Reduction of resazurin, and therefore bacterial growth, was seen as a change from blue to pink.

pIC50: −log10 of the molar value. Values after ≈ are worked out from the molar mass of the structure shown. Where a name gives a salt, the structure may show the parent alone.

For the compound `Cc1cccc(C(CC(=O)NCC2CCC(N)CC2)c2cn(CC3CCCCC3)c3ccccc23)c1.Cl` [Compound 180, N-(((1R,4R)-4-aminocyclohexyl)methyl)-3-(1-(cyclohexylmethyl)-1H-indol-3-yl)-3-(m-tolyl)propanamide hydrochloride salt], the pIC50 (commonly −log10 of the IC50, conventionally taken in molar units) in assay [1] is 4.74. Moreover, the values for the MIC in assay [2] and in assay [3] were 17 µg/mL and 67 µg/mL, respectively.

Take `Cc1cccc(C(CC(=O)NCCC2CCNCC2)c2cn(CC3CCCCC3)c3ccccc23)c1.Cl` (centres unmarked) [Compound 92, 3-(1-(cyclohexylmethyl)-1H-indol-3-yl)-N-(2-(piperidin-4-yl)ethyl)-3-(m-tolyl)propanamide hydrochloride salt]: the pIC50 in assay [1] was 4.35. Besides, the figures for the MIC in assay [2] and in assay [3] were 16 µg/mL and 64 µg/mL, respectively.

Consider `Cl.O=C(CC(c1cscn1)c1cn(CC2CCCCC2)c2ccccc12)NC1CCNCC1` (centres unmarked) [Compound 101, 3-(1-(cyclohexylmethyl)-1H-indol-3-yl)-N-(piperidin-4-yl)-3-(thiazol-4-yl)propanamide hydrochloride salt], for which the pIC50 in assay [1] was 3.41. Also, the MIC in assay [2] and in assay [3] was 128 µg/mL throughout.

`COc1cc(OC)cc(C(CC(=O)N[C@H]2CC[C@H](N)CC2)c2cn(CC3CCCCC3)c3ccccc23)c1.Cl` (stereo partly drawn) [Compound 127, N-((1R,4R)-4-aminocyclohexyl)-3-(1-(cyclohexylmethyl)-1H-indol-3-yl)-3-(3,5-dimethoxyphenyl) propanamide hydrochloride salt] had a pIC50 in assay [1] of 4.72. For the same compound, the MIC – broadly, the lowest concentration found to suppress growth – in assay [2] was 512 µg/mL; in assay [3], greater than 512 µg/mL.

`O=C(CC(c1cn(Cc2ccccc2)c2ccccc12)C1CCNCC1)NCCC1CCNCC1` (centres unmarked) [Compound 77, 3-(1-benzyl-1H-indol-3-yl)-3-(piperidin-4-yl)-N-(2-(piperidin-4-yl)ethyl)propanamide hydrochloride salt] had a pIC50 in assay [1] of 3.85.

In the case of `Cl.Cl.N[C@H]1CC[C@H](NCCC(c2cn(C3CCCCC3)c3ccccc23)C2CCCCC2)CC1` (stereo partly drawn) [Compound 378, ((1R,4R)-N1-(3-cyclohexyl-3-(1-cyclohexyl-1H-indol-3-yl)propyl)cyclohexane-1,4-diamine salt], the pIC50 in assay [1] is 4.66.

As to `O=C(CC(c1cccnc1)c1cn(Cc2ccccc2)c2ccccc12)NCCC1CCNCC1` (centres unmarked) [Compound 93, 3-(1-benzyl-1H-indol-3-yl)-N-(2-(piperidin-4-yl)ethyl)-3-(pyridin-3-yl) propanamide hydrochloride salt], in assay [1], the pIC50 was 3.51.

The compound `O=C(CCc1cn(Cc2ccccc2)c2ccccc12)NCCC1CCNCC1` [Compound 88, 3-(1-benzyl-1H-indol-3-yl)-N-(2-(piperidin-4-yl)ethyl)propanamide hydrochloride salt] gave a pIC50 in assay [1] of 3.07.

As to `O=C(CC(c1cscn1)c1cn(Cc2ccccc2)c2ccccc12)NC1CCNCC1` (centres unmarked) [Compound 96, 3-(1-benzyl-1H-indol-3-yl)-N-(piperidin-4-yl)-3-(thiazol-4-yl) propanamide hydrochloride salt], the pIC50 in assay [1] is 3.04.

For `Cc1cccc(C(CC(=O)NCCN2CCCC2)c2cn(Cc3ccccc3)c3ccccc23)c1.Cl` (centres unmarked) [Compound 3, 3-(1-benzyl-1H-indol-3-yl)-N-(2-(pyrrolidin-1-yl)ethyl)-3-(m-tolyl)propanamide hydrochloride salt], the figures for the MIC in assay [2] and in assay [3] were 32 µg/mL and greater than 512 µg/mL, respectively.

Take `Cc1cccc(C(CC(=O)NCC2CCNCC2)c2cn(Cc3ccccc3)c3ccccc23)c1` (centres unmarked) [Compound 79, 3-(1-benzyl-1H-indol-3-yl)-N-(piperidin-4-ylmethyl)-3-(m-tolyl)propanamide hydrochloride salt]: the pIC50 in assay [1] was 3.89.

On to `CCOP(=O)(NCCC1CCN(C(=O)CC(c2cccc(C)c2)c2cn(CC3CCCCC3)c3ccccc23)CC1)OCC` (centres unmarked) [Compound 227, diethyl (2-(1-(3-(1-(cyclohexylmethyl)-1H-indol-3-yl)-3-(m-tolyl)propanoyl)piperidin-4-yl)ethyl)phosphoramidate], for which the MIC in assay [2] is 318 µg/mL (≈ 511 µM); in assay [3], greater than 512 µg/mL.

For `Cc1cccc(C(CC(=O)NC2CCCCC2)c2cn(CC3CCCCC3)c3ccccc23)c1` (centres unmarked) [Compound 208, N-cyclohexyl-3-(1-(cyclohexylmethyl)-1H-indol-3-yl)-3-(m-tolyl)propanamide], the MIC in assay [2] and in assay [3] was greater than 512 µg/mL each time.

`COc1ccccc1-c1ccc2c(c1)c(C(CC(=O)N[C@H]1CC[C@H](N)CC1)c1cccc(C)c1)cn2CC1CCCCC1.Cl` (some centres unmarked) [Compound 219]: the MIC in assay [2] is 10 µg/mL; in assay [3] it was greater than 512 µg/mL.

`Cc1cccc(C(CC(=O)NC2CCNCC2)c2cn(Cc3ccccc3)c3cnccc23)c1` (centres unmarked) [Compound 90, 3-(1-benzyl-1H-pyrrolo[2,3-c]pyridin-3-yl)-N-(piperidin-4-yl)-3-(m-tolyl)propanamide hydrochloride salt]: the pIC50 in assay [1] is 3.02.

With `Cc1cccc(C(CC(=O)N[C@H]2CC[C@H](O)CC2)c2cn(CC3CCCCC3)c3ccccc23)c1` (stereo partly drawn) [Compound 210, 3-(1-(cyclohexylmethyl)-1H-indol-3-yl)-N-((1R,4R)-4-hydroxycyclohexyl)-3-(m-tolyl)propanamide], the MIC in assay [2] and in assay [3] was greater than 512 µg/mL throughout.

Compound `COc1ccccc1-c1ccc2c(c1)c(C(CC(=O)N[C@H]1CC[C@H](N)CC1)c1cccc(C)c1)cn2CC1CCCCC1.Cl` (some centres unmarked) [Compound 219, hydrochloride salt] showed a pIC50 in assay [1] of 5.15.

On to `N[C@H]1CC[C@@H](NC(=O)CC(c2cccnc2)c2cn(Cc3ccccc3)c3ccccc23)CC1` (some centres unmarked) [Compound 75, N-((1s,4s)-4-aminocyclohexyl)-3-(1-benzyl-1H-indol-3-yl)-3-(pyridin-3-yl)propanamide hydrochloride salt], for which, in assay [1], the pIC50 was 3.46.

In turn, `Cc1cccc(C(CC(=O)N[C@H]2CC[C@@H](N)CC2)c2cn(Cc3ccccc3)c3ccccc23)c1` (stereo partly drawn) [Compound 54, N-((1S,4S)-4-aminocyclohexyl)-3-(1-benzyl-1H-indol-3-yl)-3-(m-tolyl)propanamide hydrochloride salt] had a pIC50 in assay [1] of 4.00.

For `CCn1cc(C(CC(=O)NC2CCNCC2)c2cccc(C)c2)c2ccccc21` (centres unmarked) [Compound 91, 3-(1-ethyl-1H-indol-3-yl)-N-(piperidin-4-yl)-3-(m-tolyl)propanamide hydrochloride salt], the pIC50 in assay [1] is 2.97.

Turning to `Cc1cccc(C(CC(=O)NC2CCNC(=O)C2)c2cn(CC3CCCCC3)c3ccc(Br)cc23)c1` (centres unmarked) [Compound 296, 3-(5-bromo-1-(cyclohexylmethyl)-1H-indol-3-yl)-N-(2-oxopiperidin-4-yl)-3-(m-tolyl)propanamide hydrochloride salt], the MIC in assay [2] and in assay [3] was greater than 512 µg/mL in each case.

Consider `Cl.NC1CCC(NC(=O)Cc2cn(CC3CCCCC3)c3ccc(-c4cccc(OC(F)(F)F)c4)cc23)CC1` [Compound 240, N-((1S,4S)-4-aminocyclohexyl)-2-(1-(cyclohexylmethyl)-5-(3-(trifluoromethoxy)phenyl)-1H-indol-3-yl)acetamide hydrochloride salt], for which the figures for the MIC in assay [2] and in assay [3] were 9 µg/mL and 289 µg/mL, respectively.

Turning to `O=C(CC(c1cscn1)c1cn(Cc2ccccc2)c2ccccc12)NCCC1CCNCC1` (centres unmarked) [Compound 95, 3-(1-benzyl-1H-indol-3-yl)-N-(2-(piperidin-4-yl)ethyl)-3-(thiazol-4-yl) propanamide hydrochloride salt], in assay [1] (hydrochloride salt), the pIC50 is 2.89.

Regarding `Cc1cccc(C(CC(=O)Nc2ccc(N3CCNCC3)cc2)c2cn(CC3CCCCC3)c3ccccc23)c1.Cl` (centres unmarked) [Compound 155, 3-(1-(cyclohexylmethyl)-1H-indol-3-yl)-N-(4-(piperazin-1-yl)phenyl)-3-(m-tolyl)propanamide hydrochloride salt], the MIC in assay [2] and in assay [3] was greater than 512 µg/mL each time.

In the case of `Cl.Nc1ccc(NC(=O)CCc2cn(CC3CCCCC3)c3ccc(Br)cc23)cn1` [Compound 298, N-(6-aminopyridin-3-yl)-3-(5-bromo-1-(cyclohexylmethyl)-1H-indol-3-yl)propanamide hydrochloride salt], the MIC in assay [2] was 15 µg/mL; in assay [3] it was greater than 512 µg/mL.

Consider `Cc1cccc(C(CC(=O)Nc2ccc(N3CCCCC3)cc2)c2cn(CC3CCCCC3)c3ccccc23)c1.Cl` (centres unmarked) [Compound 158, 3-(1-(cyclohexylmethyl)-1H-indol-3-yl)-N-(4-(piperidin-1-yl)phenyl)-3-(m-tolyl)propanamide hydrochloride salt], for which the MIC in assay [2] and in assay [3] was greater than 512 µg/mL each time.

Regarding `O=C(CC(c1cscn1)c1cn(Cc2ccccc2)c2ccccc12)NCCC1CCNCC1` (centres unmarked) [Compound 76, 3-(1-benzyl-1H-indol-3-yl)-N-(2-(piperidin-4-yl)ethyl)-3-(thiazol-4-yl) propanamide hydrochloride salt], in assay [1] (hydrochloride salt), the pIC50 is 3.71.

Consider `Cl.N[C@H]1CC[C@H](NC(=O)CC(c2ccccc2)c2cn(CC3CCCCC3)c3ccccc23)CC1` (stereo partly drawn) [Compound 130, N-((1R,4R)-4-aminocyclohexyl)-3-(1-(cyclohexylmethyl)-1H-indol-3-yl)-3-phenylpropanamide hydrochloride salt], for which the MIC in assay [2] and in assay [3] was 64 µg/mL throughout.

With `O=C(CCc1cn(Cc2ccccc2)c2ccccc12)NC1CCNCC1` [Compound 102, 3-(1-benzyl-1H-indol-3-yl)-N-(piperidin-4-yl)propanamide hydrochloride salt], the pIC50 in assay [1] is 3.02.

The compound `Cc1cccc(C(CC(=O)NC2CCNCC2)c2cn(CC3CCCCC3)c3cccnc23)c1` (centres unmarked) [Compound 98, 3-(1-(cyclohexylmethyl)-1H-pyrrolo[3,2-b]pyridin-3-yl)-N-(piperidin-4-yl)-3-(m-tolyl)propanamide hydrochloride salt] had a pIC50 in assay [1] of 3.57.

On to `Cc1cccc(C(CC(=O)NCCC2CCNCC2)c2cn(Cc3ccccc3)c3ncncc23)c1` (centres unmarked) [Compound 94, 3-(7-benzyl-7H-pyrrolo[2,3-d]pyrimidin-5-yl)-N-(2-(piperidin-4-yl)ethyl)-3-(m-tolyl)propanamide hydrochloride salt], for which the pIC50 in assay [1] is 3.04.

For the origin of these results see US20210246115A1 (Bioimics AB, priority 2017, published 2021).
